Assay results from patent US7419980B2, “Fused-aryl and heteroaryl derivatives and methods of their use” (Wyeth, priority 2003, dated 2008).
Counter-ions that a name gives are not always drawn. Like-named read-outs stand apart in the source and are kept apart here.

Target: T1, human hNET (Homo sapiens, UniProt P23975)
T1 construct: expressed in transfected cells; host or cells: MDCK-Net6 (MDCK cells stably transfected with hNET)
Assay: Norepinephrine (NE) uptake assay in MDCK-Net6 cells
Type: cell-based
Experimental: MDCK-Net6 cells, stably transfected with human hNET (Pacholczyk, T., R. D. Blakely, and S. G. Amara, Nature, 1991, 350(6316): p. 350-4) were cultured in growth medium containing high glucose DMEM (Gibco, Cat. No. 11995), 10% FBS (dialyzed, heat-inactivated, US Bio-Technologies, Lot FBD1129HI) and 500 μg/ml G418 (Gibco, Cat. No. 10131). Cells were plated at 300,000/T75 flask and cells were split twice weekly. The JAR cell line (human placental choriocarcinoma) was purchased from ATCC (Cat. No. HTB-144). The cells were cultured in growth medium containing RPMI 1640 (Gibco, Cat. No. 72400), 10% FBS (Irvine, Cat. No. 3000), 1% sodium pyruvate (Gibco, Cat. No. 1136) and 0.25% glucose. Cells were plated at 250,000 cells/T75 flask and split twice weekly. For all assays, cells were plated in Wallac 96-well sterile plates (PerkinElmer, Cat. No. 3983498).
On day 1, cells were plated at 3,000 cells/well in growth medium and maintained in a cell incubator (37° C., 5% CO2). On day 2, growth medium was replaced with 200 μl of assay buffer (25 mM HEPES; 120 mM NaCl; 5 mM KCl; 2.5 mM CaCl2; 1.2 mM MgSO4; 2 mg/ml glucose (pH 7.4, 37° C.)) containing 0.2 mg/ml ascorbic acid and 10 μM pargyline. Plates containing cells with 200 μl of assay buffer were equilibrated for 10 minutes at 37° C. prior to addition of compounds. A stock solution of desipramine was prepared in DMSO (10 mM) and delivered to triplicate wells containing cells for a final tert concentration of 1 μM. Data from these wells were used to define non-specific NE uptake (minimum NE uptake). Test compounds were prepared in DMSO (10 mM) and diluted in assay buffer according to tert range (1 to 10,000 nM). Twenty-five microliters of assay buffer (maximum NE uptake) or tert compound were added directly to triplicate wells containing cells in 200 μl of assay buffer. The cells in assay buffer with tert compounds were incubated for 20 minutes at 37° C. To initiate the NE uptake, [^3H]NE diluted in assay buffer (120 nM final assay concentration) was delivered in 25 μl aliquots to each well and the plates were incubated for 5 minutes (37° C.). The reaction was terminated by decanting the supernatant from the plate. The plates containing cells were washed twice with 200 μl assay buffer (37° C.) to remove free radioligand. The plates were then inverted, left to dry for 2 minutes, then reinverted and air-dried for an additional 10 minutes. The cells were lysed in 25 μl of 0.25 N NaOH solution (4° C.), placed on a shake table and vigorously shaken for 5 minutes. After cell lysis, 75 μl of scintillation cocktail was added to each well and the plates were sealed with film tape. The plates were returned to the shake table and vigorously shaken for a minimum of 10 minutes to ensure adequate partitioning of organic and aqueous solutions. The plates were counted in a Wallac Microbeta counter (PerkinElmer) to collect the raw cpm data.
For each experiment, a data stream of cpm values collected from the Wallac Microbeta counter was downloaded to a Microsoft Excel statistical application program. Calculations of EC50 values were made using the transformed-both-sides logistic dose response program written by Wyeth Biometrics Department. The statistical program uses mean cpm values from wells representing maximum binding or uptake (assay buffer) and mean cpm values from wells representing minimum binding or uptake ((1 μM desipramine (hNET) or 1 μM paroxetine (hSERT)). Estimation of the EC50 value was completed on a log scale and the line was fit between the maximum and minimum binding or uptake values. All graphic data representation was generated by normalizing each data point to a mean percent based on the maximum and minimum binding or uptake values. The EC50 values reported from multiple experiments were calculated by pooling the raw data from each experiment and analyzing the pooled data as one experiment.

[1] = 1 μM test compound, [3H]NE uptake, MDCK-Net6 cells, read-out: % Inhibition @ 1 μM (hNET)
[2] = MDCK-Net6, read-out: % Inhibition @ 1 μM (hNET)

T1 sequence (P23975 whole entry): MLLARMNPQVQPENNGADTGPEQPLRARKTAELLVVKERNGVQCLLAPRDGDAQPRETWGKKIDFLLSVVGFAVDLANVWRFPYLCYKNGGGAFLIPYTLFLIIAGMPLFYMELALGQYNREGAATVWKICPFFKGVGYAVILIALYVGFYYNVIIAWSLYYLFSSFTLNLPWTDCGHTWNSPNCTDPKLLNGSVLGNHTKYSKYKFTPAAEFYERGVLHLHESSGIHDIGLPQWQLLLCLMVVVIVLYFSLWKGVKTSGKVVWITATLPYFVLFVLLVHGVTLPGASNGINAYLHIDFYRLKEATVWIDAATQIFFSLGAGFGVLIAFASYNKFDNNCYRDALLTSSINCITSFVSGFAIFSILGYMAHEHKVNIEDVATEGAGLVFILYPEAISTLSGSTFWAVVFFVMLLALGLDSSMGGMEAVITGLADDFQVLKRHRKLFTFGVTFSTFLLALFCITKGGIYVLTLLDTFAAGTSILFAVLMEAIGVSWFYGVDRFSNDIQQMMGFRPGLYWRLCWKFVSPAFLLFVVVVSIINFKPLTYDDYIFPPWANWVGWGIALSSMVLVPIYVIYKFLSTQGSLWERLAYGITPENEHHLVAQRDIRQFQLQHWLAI

| inhibition at 1 µM [1] | SMILES | inhibition at 1 µM [2] | EC50 ([3H]NE uptake, MDCK-Net6 cells) |
| --- | --- | --- | --- |
| 75% | OC1(C(CN2CCNCC2)c2csc3ccc(Cl)cc23)CCCCC1 (stereo not drawn) [Example 260, 1-[1-(5-chloro-1-benzothien-3-yl)-2-piperazin-1-ylethyl]cyclohexanol Dihydrochloride] |  |  |
|  | CN1CCN(C[C@H](c2csc(Cl)c2)C2(O)CCCCC2)CC1 [Example 259, 1-[(1S)-1-(5-chlorothien-3-yl)-2-(4-methylpiperazin-1-yl)ethyl]cyclohexanol Dihydrochloride] | 20% |  |
|  | OC1(C(CN2CCNCC2)c2cc(Cl)sc2Cl)CCCCC1 (stereo not drawn) [Example 141, 1-[1-(2,5-dichlorothien-3-yl)-2-piperazine-1-ylethyl]cyclohexanol Dihydrochloride] | 94% | 240 nM |
| 34% | CCC(O)(CC)C(CN1CCNCC1)c1cccc2ccccc12 (stereo not drawn) [Example 53, 3-ethyl-2-(1-naphthyl)-1-piperazin-1-ylpentan-3-ol Dihydrochloride] |  |  |
| 44% | OC1(C(CN2CCNCC2)c2cccc3ccccc23)CCCC1 (stereo not drawn) [Example 45, 1-[1-(1-naphthyl)-2-piperazin-1-ylethyl]cyclopentanol Dihydrochloride] |  |  |
| 5% | CC1CCC(O)(C(CN2CCNCC2)c2cccc3ccccc23)CC1 (stereo not drawn) [Example 97, 4-methyl-1-[1-(1-naphthyl)-2-piperazin-1-ylethyl]cyclohexanol Dihydrochloride] |  |  |
|  | CN1CCN(C[C@@H](c2csc(Cl)c2)C2(O)CCCCC2)CC1 [Example 258, 1-[(1R)-1-(5-chlorothien-3-yl)-2-(4-methylpiperazin-1-ylethyl]cyclohexanol Dihydrochloride] | 91% |  |
| 13% | CN1CCN(CC(c2cccc3ccccc23)C2(O)CCCCCCC2)CC1 (stereo not drawn) [Example 270, 1-[2-(4-methylpiperazin-1-yl-1-(1-naphthyl)ethyl]cyclooctanol Dihydrochloride] |  |  |
| 15% | CCC(O)(CC)C(CN1CCN(C)CC1)c1cccc2ccccc12 (stereo not drawn) [Example 89, 3-ethyl-1-(4-methylpiperazin-1-yl)-2-(1-naphthyl)pentan-3-ol Dihydrochloride] |  |  |
| 21% | OC1(C(CN2CCNCC2)c2c[nH]c3ccccc23)CCCCC1 (stereo not drawn) [Example 155, 1-[1-(1H-indol-3-yl)-2-piperazin-1-ylethyl]cyclohexanol Dihydrochloride] |  |  |
| 14% | CCC1CCC(O)(C(CN2CCNCC2)c2cccc3ccccc23)CC1 (stereo not drawn) [Example 91, 4-ethyl-1-[1-(1-naphthyl)-2-piperazin-1-ylethyl]cyclohexanol Dihydrochloride] |  |  |
